Test results: patent US20150025077A1 (COYOTE PHARMACEUTICALS, INC., priority 2012, published 2015)
Like-named read-outs stand apart in the source and are kept apart here.

What was measured:
[1] = Katsuno et al., Proc. Natl. Acad. Sci. USA 2003; cited from earlier work
[2] = In-vivo PK of GGA oral formulations in rat; details: plasma; for bioavailability: read-out: oral bioavailability (% F); for half-life: read-out: t½ (converted)
Protocol: PK Parameters were calculated from noncompartmental analysis (NCA) model using WinNonlin software and the linear/log trapezoidal method.
Parameters that requires 1z: Terminal Half-Life (t1/2)=ln(2)/lz. Calculated using Lambda_z method to find best fit. If necessary, the concentration-time points were manually selected for use in the calculation. Bolded-italicized concentrations indicate points used for calculation.

[3] = Kp (ratio of AUCbrain to AUCplasma) of GGA in rat; type: in vivo; details: brain, 4 h, 6 h, 8 h, and 10 h time points
Neuro2A cells = Neuro2A cells that extended neurites, with GGTI-298 (Example 18); type: cell-based; details: 0.1-1 μM; vehicle 0.0-0.20
Text: After differentiation was induced, cells that extended neurites were counted.

[4] = tested on: Murine neuro2A neuroblastoma cells; experiment: Neurite outgrowth of neuro2A cells with GGTI-298 (Example 30); type: cell-based, mouse; details: for Protection % / Median Counts (cells with neurite outgrowth) / ratio of counts relative to no inhibition: CNS-102/CNS-103 experiment; for Median Counts (cells with neurite outgrowth): no inhibition 60.3, PBS 18.5
Protocol: Differentiation was induced and cells incubated with geranylgeranyl transferase I inhibitor, GGTI-298. After 24 h digital images were taken and neurite outgrowth was quantified. The comparisons of the neuroprotective effect of these three compounds are shown below.
The estimated mean log10 counts, from five replicate wells for each treatment group were calculated by PROC GLM in SAS assuming a pooled estimate of variation.
The estimated mean log 10 counts from five replicate wells for each treatment group were calculated by PROC GLM in SAS assuming a pooled estimate of variation.
Differences in mean log(counts) between treatments for each concentration were calculated using PROC GLM in SAS. The p-value given is for the comparison of the estimated difference to zero, the expected difference value for no treatment effect. The anti-log of the differences represent the estimated ratio of counts (relative effect on inhibition) and are tabulated below along with the lower and upper 95% confidence intervals.

HSP70 = HSP70 expression in neuro2A cells, western blot; type: cell-based, mouse; details: for HSP70 western signal (absence of compounds = 1.00): 48 hours, GGTI-298
Protocol: Differentiation was induced and cells incubated with geranylgeranyl transferase I inhibitor, GGTI-298. Cells were harvested and lysates were prepared and analyzed by western blot for HSP70 and HSP90. Western signals in the absence of the compounds were normalized as 1.00.

Rap1 = experiment: Prenylation of Rap1 in Neuro2A cells, western blotting; type: cell-based, mouse; details: 100 nM; with GGTI-298; percentage of control (GGTI only)
Protocol: Mouse neuroblastoma Neuro2A cells were cultured in DMEM supplemented with 10% FBS for 24 hrs. The cells were treated with 102GGA derivative compounds for 24 hrs first before GGTase inhibitor GGTI-298 was added to the culture medium for additional 24 hr incubation. […] Both un-prenylated and total Rap1 protein bands were quantified using Image J and normalized to their respective loading control GAPDH. The results for control and each compound treatment were calculated as the ratio of normalized un-prenylated Rap1 to total Rap1, and averaged from two biological repeats of one experiment. The final results were presented as a percentage of the control treatments (GGTI only) from the same batch experiment. The data shown in the chart were averaged from two repeats of one experiment and presented as the ratio of normalized un-prenylated Rap1 to total Rapt Compound ID numbers in table refer to structures in Table 1 and Table 2.

Sprague-Dawley rats = experiment: Kainic acid induced neurodegeneration and seizure behaviors in rats (Examples 20, 21); type: in vivo, rat; details: oral
Text: Seizure behaviors were observed and scored (Ref. R. J. Racine, Modification of seizure activity by electrical stimulation: II. Motor seizure, Electroencephalogr. Clin. […] Modifications were made for the methods). Brain tissues of rats were sectioned on histology slides, and neurons in hippocampus tissues were stained by Nissl. Neurons in dentate gyrus tissues damaged by Kainic acid were quantified. The Memantine composition used in comparison refers to a commercially available NMDA receptor […]. […] Seizure behaviors were observed and scored (Ref. R. J. Racine, Modification of seizure activity by electrical stimulation: II. Motor seizure, Electroencephalogr. Clin. […] Modifications were made for the methods). Brain tissues of rats were sectioned on histology slides, and neurons in hippocampus tissues were stained by Nissl. Neurons damaged by Kainic acid and behavior scores were quantified.

[5] = tested on: Mouse Neuro2A neuroblastoma cells; experiment: Neuro2A cells with neurites after GGTI-298 (Example 16); type: cell-based; details: 10 μM
Protocol: Mouse Neuro2A neuroblastoma cells were cultured in DMEM supplemented with 10% FBS for 24 hrs. […] Then differentiation was induced by retinoic acid in DMEM supplemented with 2% FBS. The cell culture was incubated with a Geranylgeranyl Transferase inhibitor, GGTI-298. After 24 hrs incubation, cells with neurites were counted.

[6] = tested on: Rat primary motor neurons; experiment: Axon extension of rat primary motor neurons; type: cell-based; details: 72 hrs; read-out: EC50 (cells extending axons)
Protocol: Rat primary motor neurons were isolated from embryonic spinal cords in accordance with the method of Henderson et al.; J Cohen and G P Wilkin (ed.), Neural Cell Culture, (1995) p69-81 which is herein incorporated by reference in its entirety. Briefly, spinal cords were dissected from day 15 embryo (E15) and incubated in a trypsin solution, and followed by DNase treatment to release spinal cord cells from tissue fragments. The cell suspension was centrifuged to remove tissue fragments. Then motor neurons were enriched by density gradient centrifugation.
Motor neurons were cultured in serum-free neurobasal medium containing insulin, forskolin, 3-isobutyl-1-methylxanthine, neurotrophic factors, Bovine serum albumin, selenium, transferrin, putrescine, progesterone and B27 supplement in tissue culture plate coated with poly-ornithine and laminin.
Rat primary motor neurons were prepared and cultured as described in Example 13. […] The cells extending axons were counted in five different fields for each treatment after 72 hrs. Percentage of positive cells relative to total cells in the same magnification field was calculated and the results were expressed as means+/−standard deviations, n=5.

[7] = tested on: Mouse neuroblastoma Neuro2A cells; experiment: Rescue of amyloid-beta oligomer induced cytotoxicity in Neuro 2a cells (CellTiter-Glo); type: cell-based; details: mouse/rat NG108-15, N2a, A-beta (O) together with compound 48 hr, normalized to A-beta (O) treated only, read-out: % viability vs. untreated
Protocol: Preparation of amyloid-beta oligomer (A-beta (O)): Synthetic wild type A-beta (1-42) was purchased from American Peptide, and first dissolved with hexafluoroisopropanol (HFIP), then dried in the blowing tissue culture hood overnight to form a film in the eppendorf tube. The A-beta peptide film was first resuspended with DMSO to a concentration of 5 mM, further diluted with DMEM containing N2 supplement (Invitrogen) to achieve a concentration of 100 μM, and then sonicated in room temperature water bath for 10 minutes. The 100 μM peptide solution was then incubated at 4° C. for 24 hr and thoroughly vortexed before applied to cells.
Mouse neuroblastoma Neuro2A cells were plated in 96-well plates and cultured in DMEM supplemented with 10% FBS for 24 hr. […] At the end of incubation, cells were harvested and subjected to viability assay using CellTiter-Glo Luminescent Cell Viability Assay Kit (Promega). […] Compound ID numbers in table refer to structures in Table 1 and Table 2.

[8] = GGA in 3% Hydroxypropyl Cellulose (Mn=10,262) aqueous suspension
[9] = GGA in 3% Hydroxypropyl Cellulose (Mn=100,000) aqueous suspension
[10] = GGA in 5% Gum Arabic aqueous suspension
[11] = GGA in 5% Gum Arabic+3% Hydroxypropyl Cellulose (Mn=10,262) aqueous suspension
[12] = GGA in 5% Gum Arabic+3% Hydroxypropyl Cellulose (Mn=100,000) aqueous suspension

CC(=O)CC/C=C(\C)CC/C=C(\C)CC/C=C(\C)CCC=C(C)C [GGA, geranylgeranyl acetone]
concentration of GGA required to exert a cytoprotective effect [1]: more than 600 mg per kg per day | Tmax [2, 8]: 9.33 h | bioavailability [2, 8]: 35% | half-life [2, 8]: 18.7 h | Tmax [2, 9]: 8.66 h | bioavailability [2, 9]: 41.8% | half-life [2, 9]: 3.13 h | Tmax [2, 10]: 7.33 h | bioavailability [2, 10]: 37.3% | half-life [2, 10]: 3.43 h | Tmax [2, 11]: 13.3 h | bioavailability [2, 11]: 36.5% | half-life [2, 11]: 6.73 h | Tmax [2, 12]: 5.33 h | bioavailability [2, 12]: 58% | half-life [2, 12]: 10.2 h | Kp [3]: 0.08 to 0.11

CC(=O)CC/C=C(/C)CC/C=C(\C)CC/C=C(\C)CCC=C(C)C [CNS-103]
Mean of cell numbers (cells that extended neurites) (Neuro2A cells): 0.20-0.45 Arbitrary units | Protection % ([4]; 10 nM): 19.6% | Median Counts (cells with neurite outgrowth) ([4]; 10 nM): 26.7 | ratio of counts relative to no inhibition ([4]; 10 nM): 0.443 | Protection % ([4]; 100 nM): 25.8% | Median Counts (cells with neurite outgrowth) ([4]; 100 nM): 29.3 | ratio of counts relative to no inhibition ([4]; 100 nM): 0.486 | Protection % ([4]; 1000 nM): 24.4% | Median Counts (cells with neurite outgrowth) ([4]; 1000 nM): 28.7 | ratio of counts relative to no inhibition ([4]; 1000 nM): 0.476 | Protection % ([4]; 10000 nM): −5.3% | Median Counts (cells with neurite outgrowth) ([4]; 10000 nM): 16.3 | ratio of counts relative to no inhibition ([4]; 10000 nM): 0.270 | maximum protection ([4]; CNS-102/CNS-103 experiment (FIG. 4B)): ~26% | HSP70 western signal (absence of compounds = 1.00) (HSP70; 100 nM): 1.00 | HSP70 western signal (absence of compounds = 1.00) (HSP70; 1 μM): 1.07 | HSP70 western signal (absence of compounds = 1.00) (HSP70; 10 μM): 0.99 | induction of HSP70 expression (HSP70; various concentrations): failed to induce expression of HSP70 | unprenylated/total RAP1 (%) (Rap1): 96% | Mean of Hippocampus CA3 Neurons Damaged (Sprague-Dawley rats; 12 mg/Kg rat): 8.16 Arbitrary units | Mean of Hippocampus CA3 Neurons Damaged (Sprague-Dawley rats; 25 mg/Kg rat): 10.64 Arbitrary units | Mean of cell numbers (cells with neurites) [5]: 0.195 Arbitrary units | EC50 [6]: 9.49 nM

CC(C)=CCC/C(C)=C/CC/C(C)=C/CCC(=O)C(C)C [Compound 101]
viability at 1 µM [7]: 126%
